The target of one data set is T1, human ERα (Homo sapiens, UniProt P03372).
T1 construct: made in house; host or cells: E. coli (crude lysate)
T1 sequence (P03372 311-547 limits assumed): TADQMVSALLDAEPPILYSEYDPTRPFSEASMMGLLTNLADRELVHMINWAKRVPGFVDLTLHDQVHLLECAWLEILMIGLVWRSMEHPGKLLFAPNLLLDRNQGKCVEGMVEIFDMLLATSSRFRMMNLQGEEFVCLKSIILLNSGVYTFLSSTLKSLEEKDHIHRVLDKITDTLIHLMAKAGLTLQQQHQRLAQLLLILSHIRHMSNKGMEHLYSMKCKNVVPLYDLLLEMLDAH
As to the kind of experiment: Competition with [3H]-17β-estradiol for binding to ERα. The following applies: ligand binding domain of human ERα in E. coli crude lysate, 2 nM [3H]-17β-estradiol, 5-15 hours at room temperature; read-out: ERα (nM) IC50. On the procedure:
Representative examples of the invention were evaluated for their ability to compete with 17β-estradiol for both ERα and ERβ. This test procedure provides the methodology for one to determine whether a particular compound binds to the estrogen receptor (and is therefore “estrogenic”) and whether there is selectivity for ERα or ERβ. The values are shown in the Table infra and are reported as IC50s. 17β-estradiol is included as a standard reference for comparison. The procedure used is briefly described below. A crude lysate of E. coli expressing the estrogen receptor ligand binding domains (D, E, & F) of human ERα or ERβ was prepared. Both receptors and compounds were diluted in 1× Dulbecco's PBS (DPBS) supplemented with 1 mM EDTA. Using a high binding masked microtiter plate, 100 uL of receptor (1 uG/well) was combined with 2 nm [^3H]-17β-estradiol and various concentrations of compound. After between 5 and 15 hours at room temperature, the plates were washed with DPBS/1 mM EDTA and bound radioactivity determined by liquid scintillation counting. The IC50 is defined as the concentration of compound that decreases total 17β-estradiol binding by 50%.

For the next data set, the target named is T2, human ERβ (Homo sapiens, UniProt Q92731).
T2 construct: made in house; host or cells: E. coli (crude lysate)
As to the kind of experiment: Competition with [3H]-17β-estradiol for binding to ERβ. The following applies: ligand binding domain of human ERβ in E. coli crude lysate, 2 nM [3H]-17β-estradiol, 5-15 hours at room temperature. On the procedure: Representative examples of the invention were evaluated for their ability to compete with 17β-estradiol for both ERα and ERβ. This test procedure provides the methodology for one to determine whether a particular compound binds to the estrogen receptor (and is therefore “estrogenic”) and whether there is selectivity for ERα or ERβ. […] 17β-estradiol is included as a standard reference for comparison. The procedure used is briefly described below. A crude lysate of E. coli expressing the estrogen receptor ligand binding domains (D, E, & F) of human ERα or ERβ was prepared. Both receptors and compounds were diluted in 1× Dulbecco's PBS (DPBS) supplemented with 1 mM EDTA. Using a high binding masked microtiter plate, 100 uL of receptor (1 uG/well) was combined with 2 nm [^3H]-17β-estradiol and various concentrations of compound. After between 5 and 15 hours at room temperature, the plates were washed with DPBS/1 mM EDTA and bound radioactivity determined by liquid scintillation counting. The IC50 is defined as the concentration of compound that decreases total 17β-estradiol binding by 50%.

Structures are written as SMILES.

The record followed here is patent US7671084B2 (Wyeth, priority 2004, dated 2010).

T2 sequence (Q92731 264-498 limits assumed): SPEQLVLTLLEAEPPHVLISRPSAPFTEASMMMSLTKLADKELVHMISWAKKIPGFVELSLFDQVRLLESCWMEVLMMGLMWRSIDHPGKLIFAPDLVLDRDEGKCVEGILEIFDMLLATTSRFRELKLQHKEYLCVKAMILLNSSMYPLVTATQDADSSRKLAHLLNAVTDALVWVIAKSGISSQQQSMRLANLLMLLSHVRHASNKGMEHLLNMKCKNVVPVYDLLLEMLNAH

Consider `CCc1ccc(-c2c3c(cc4ccc(O)cc24)-c2ccc(O)cc2CO3)cc1` [Example 62, 7-(4-Ethylphenyl)-5H-dibenzo[c,g]chromene-3,9-diol], for which the melting point (as a rule, the temperature of the solid-liquid transition) was 203 to 205 °C. The IC50 (usually the concentration needed to halve the response being measured) at human ERα was 892 nM. Besides, the half-maximal inhibitory concentration (IC50) at human ERβ is 26 nM.

`Oc1ccc2c(c1)COc1c-2cc2ccc(O)cc2c1-c1ccoc1` [Example 47, 7-(3-Furyl)-5H-dibenzo[c,g]chromene-3,9-diol]: the melting point lay in the range of 216 to 218 °C. The IC50 on human ERα was 76 nM. The IC50 on human ERβ stood at 2 nM.

With `Cc1ccccc1-c1c2c(cc3ccc(O)cc13)-c1ccc(O)cc1CO2` [Example 24, 7-(2-Tolyl)-5H-dibenzo[c,g]chromene-3,9-diol], the melting point is 193 to 196 °C. The IC50 on human ERα stood at 487 nM. For the same molecule, at human ERβ, the IC50 was found to be 11 nM.

`Cc1ccc(-c2c3c(cc4ccc(O)cc24)-c2ccc(O)cc2CO3)cc1C` [Example 39, 7-(3,4-Dimethylphenyl)-5H-dibenzo[c,g]chromene-3,9-diol] returned a melting point of 218 to 221 °C. For the same molecule, the IC50 on human ERα came to 608 nM. In addition, the IC50 on human ERβ came out at 22 nM.

In turn, `COc1ccc(-c2c3c(cc4ccc(O)cc24)-c2ccc(O)cc2CO3)cc1OC` [Example 42, 7-(3,4-Dimethoxyphenyl)-5H-dibenzo[c,g]chromene-3,9-diol] had a melting point of 245 to 248 °C. In addition, the IC50 on human ERα was determined as 1820 nM. The IC50 at human ERβ stood at 22 nM.

As to `Cc1c2c(cc3ccc(O)cc13)-c1ccc(O)cc1CO2` [Example 21, 7-Methyl-5H-dibenzo[c,g]chromene-3,9-diol], the melting point lay in the range of 224 to 226 °C. On human ERα, the IC50 is 17 nM. This molecule also gave an IC50 on human ERβ of 1 nM.

`OCc1ccccc1-c1c2c(cc3ccc(O)cc13)-c1ccc(O)cc1CO2` [Example 22, 7-[2-(Hydroxymethyl)phenyl]-5H-dibenzo[c,g]chromene-3,9-diol]: the melting point was 171 to 173 °C. Also, the IC50 at human ERα is 531 nM. The same molecule came in with an IC50 at human ERβ of 349 nM.

`Oc1ccc2c(c1)COc1c-2cc2ccc(O)cc2c1-c1ccccc1Cl` [Example 35, 7-(2-Chlorophenyl)-5H-dibenzo[c,g]chromene-3,9-diol] returned a melting point of 220 to 222 °C. Also, the IC50 on human ERα is 26 nM. Moreover, the IC50 on human ERβ was 9.7 nM.

`CCCCc1c2c(cc3ccc(O)cc13)-c1ccc(O)cc1CO2` [Example 49, 7-Butyl-5H-dibenzo[c,g]chromene-3,9-diol] gave a melting point of 187 to 189 °C. For the same molecule, on human ERα, the IC50 stood at 4 nM. Besides, the IC50 at human ERβ was 0.8 nM.

As for `COc1ccc(-c2c3c(cc4ccc(O)cc24)-c2ccc(O)cc2CO3)cc1` [Example 27, 7-(4-Methoxyphenyl)-5H-dibenzo[c,g]chromene-3,9-diol], the melting point lay in the range of 200 to 203 °C. Besides, on human ERα, the IC50 was determined as 702 nM. In addition, at human ERβ, the IC50 amounted to 9.8 nM.
